Test results: article PMC8750417, “Intracellular Amplifiers of Reactive Oxygen Species Affecting Mitochondria as Radiosensitizers” (Cancers, 2021)

Assays:
A2780 cells = test: Accumulation of prodrugs in A2780 cells (atomic emission spectrometry of B, Fe); format: cell-based, human; conditions: 5 µM, 4 h, Zn as internal standard, carrier = 1
Procedure: colored arrow. After the initial lagging period, the oxidation reactions reach their maximum […]
Accumulation of prodrugs in A2780 cells
A2780 cells (around 150 cells/µL, 40 mL) were seeded in T175 flasks (Greiner, Germany) in RPMI 1640 medium supplemented with 5% FBS, 1% L-glutamine, and 1% penicillin/streptomycin and incubated for 3-4 days at 37°C in the chamber filled with 5%
CO2. Next, a fresh portion of RPMI 1640 medium supplemented with 5% FBS, 1% L - glutamine, and 1% penicillin/streptomycin was added to replace old medium. Prodrugs ([…], 400 µL in DMSO, final concentration: 5 µM) or carrier (DMSO, 400 µL, final concentration: 1%. v/v) were added into the bottles and the cells were further incubated at 37°C for 4 h. The cells were washed with DPBS (2 x 10 mL) and trypsinated (trypsin/EDTA, 0.025%/0.01%, v/v, 2 mL). After the cells were harvested and centrifuged (5 min, 1000 rpm) in 50 mL falcon tube, the cell pellet was re-suspended in DPBS (1 mL), the suspension - transferred to 1.5 mL EP tube and centrifuged one more time (2 min, 2000 rpm). The obtained cell pellet was shaken with concentrated HNO3 (65%, 100 µL) in an Eppendorf Thermomixer for 10 min at 95° C, 600 rpm. […] The insoluble components were separated by centrifugation (30 min, 13000 rpm) and the supernatant was analyzed by atomic emission spectrometry (AES) for the detection of B, Zn and Fe. […]

[1] = Hydrolysis of prodrugs in aqueous neutral solution (HPLC-UV-MS); format: physicochemical; conditions: 1 to 1_BA
Procedure: To identify the active form of prodrugs 2a–2d in aqueous neutral buffers, we investigated their stability in the water rich solvent mixture containing triethylammonium acetate buffer (pH 7.0, 1.5 mM) and CH3CN (7/3, v/v). We observed that even freshly prepared solutions of analytically pure samples of 2a–2d (peaks eluted at 10.2–10.7 min) contain hydrolyzed species corresponding to boronic acid derivatives 2a_BA–2d_BA (peaks eluted at 7.1–7.5 min, 7–14% of the area of all peaks) (Figure S43, SI). After 2 h incubation of these samples, the peaks of 2a_BA–2d_BA become major ones (79–87% of the area of all peaks, Figure S43, SI).
Figure S42. High resolution ESI-TOF mass spectrum of HCl salt of drug 4 (4*HCl): upper plot – experimental spectrum; bottom plot – theoretical spectrum.
Determination of crystal structure of prodrug 2a […]
Stock solutions of prodrugs (2a-2d, 3 mM) in DMSO were first prepared. […] After the probes (20 µL) of these solutions were incubated for 0 or 2 h at 37 °C, they were injected to HPLC coupled to UV-visible detector (detection of absorbance at 254 nm) and electrospray mass spectrometric detector (detection of positively charged ions in the m/z range of 300 - 1200) and the analytes were separate d by using gradients of CH3CN (containing formic acid, 0.1 %, v/v) in water (containing ammonium formate, 10 mM and formic acid, 0.1 %, v/v) from 15% to 95%. […]

Row | SMILES | Relative iron amount (A2780 cells) | time of formation of the hydrolyzed form in aqueous neutral solution [1]
1 | CC1(C)OB(c2ccc(COC(=O)N(Cc3cn(Cc4ccc(Cn5cc(Cc6ccccc6)nn5)cc4)nn3)[c-]3cccc3)cc2)OC1(C)C.[Fe+2].c1cc[cH-]c1 [2c] | 5.0 ± 0.1 | –
2 | CCOC(=O)CCCCCn1cc(CN(C(=O)OCc2ccc(B3OC(C)(C)C(C)(C)O3)cc2)[c-]2cccc2)nn1.[Fe+2].c1cc[cH-]c1 [compound 1] | 1.4 ± 0.1 | < 2 h
